Measured values from article PMC11148078, “Potent activity of polymyxin B is associated with long-lived super-stoichiometric accumulation mediated by weak-affinity binding to lipid A” (Nature Communications, 2024).
Like-named read-outs stand apart in the source and are kept apart here. Bridge positions count the residues as written; N and C are the ends. Square brackets hold non-standard residues; d marks the D form. Peptide text beside a SMILES is read from it. * marks the point of attachment. X1 = CC[C@H](C)CCCCC(=O)*; Dab = NCC[C@H](N)C(=O)O

What was measured:
[1] = system: E. coli WT; assay type: cell-based
Description: (§1) Bacterial strains and plasmids are listed in SI Table S5. LB growth media was prepared according to manufacturer’s instructions and supplemented with 0.2% arabinose and carbenicillin (50 μg/mL) for the strains containing pBAD24-mcr1 plasmid. Cultures were started by inoculating 3 ml LB with 1–2 colonies from fresh overnight plates and grown at 37 °C until in log phase. Modified minimal inhibitory concentration (MIC) assays were performed in 96-well round bottom polystyrene plates (Corning) with a final volume of 100 µl in LB supplemented with tween-80 at 0.0005%. […] Polymyxin B sulfate (TCI Co. Ltd), polymyxin B nonapeptide (PMBN) (Sigma), and brevicidine (Genentech) were diluted directly in the assay plates. Bacteria were diluted in LB with tween-80 0.0005% and added to a final OD600 of 0.0005. Growth was measured via OD600 on a SpectraMax M5 plate reader after overnight static growth at 37 °C with humidity.

[2] = system: lipid A / outer membrane; design: method as in PMID 6414364, PMID 10956216; settings: ref [20],[21]; cited from earlier work
[3] = system: S. aureus WT; assay type: cell-based
Description: as §1

[4] = system: wt-OMVs; assay: SPR chaser analysis (residence time), wt-OMVs; assay type: binding, E. coli; settings: for t1/2: n≥3, (SD)
Description: The off-rate of the tightly bound fraction was estimated using a chaser analysis, where OMVs were pre-saturated with polymyxin B and then re-saturated after an extended time interval (Supplementary Information Fig. S11A). […] A t1/2 of >6 h was determined for polymyxin B binding to OMVs at both 25 and 37 °C (SI Table S3). The t1/2 of brevicidine, also measured by chaser analysis, was approximately 1 h on both wt-OMVs and polymyxin-resistant-OMVs (SI Table S3).
Binding and kinetic analysis of SPR-OMV assays […]
To determine the residence time of the test compound with OMVs, the ‘chaser method’ was used because it accounts for drift that can occur in the system over long incubation times 13. OMVs were loaded onto the chip as described above then 5 µM polymyxin B was injected using the ‘low-sample consumption’ setting for 300 sec ([…] flow rate), followed by a 240 sec dissociation time. A second dose of 5 µM polymyxin B was then injected for 60 sec ([…]) to assure saturation followed by a 2 h dissociation time prior to the ‘chaser’, a 60 sec pulse of 5 µM polymyxin B. The RUs of associated polymyxin B were determined 120 sec after the start of the dissociation. The change in RUs from before dosing to after the second dose, and the change in RUs from prior to the ‘chaser’ dose and 120 sec after the start of its dissociation were used to calculate the fraction occupancy of the material and the residence time/half-life as described 13. […]
PMBN) to LPS for 20 min. […]
20 sec with a Solarus plasma cleaner (Gatan). Grids were blotted and plunge-frozen by Vitrobot (ThermoFisher Scientific, Waltham, MA) at 4°C, 100% relative humidity, blot force 7, and a 3 sec […]
TEM data collection was performed using a Titan Krios G3i (ThermoFisher Scientific, Waltham, MA) operating at 300 kV equipped with a BioQuantum energy filter and a K3 Summit direct electron detector operating at a nominal magnification of 105,000x (0.838 Å/pixel), an energy slit width of 20 eV, defocus range -1 to -3 μm, 3-sec exposure time, 60 frames per movie, a total electron fluence of ~64 e/Å2. Microscope and camera automation was accomplished by SerialEM14, and image processing (motion correction & CTF estimation) was performed using […]
Standard cryo-EM image processing software and methods were incompatible with the vesicle images, so a blinded visual scoring method for image analysis was used. Approximately 50 images from each sample and treatment condition that each contained at least one OMV (pooled in a single folder and blinded) were scored for number of vesicles touching (0-10+), and if the vesicle membranes appeared disrupted or abnormal. Sampling was not completely random as images of vesicles could not be obtained from areas with significant clumping. Images shown in […]

[5] = system: bacterial cells; settings: different methods, ref [27]–[31], cited from earlier work
Description: Investigations into the binding of polymyxins to bacterial cells have generally relied on whole-cell and plate-based equilibrium approaches. Different methods have produced equilibrium binding constants (KDs) for polymyxin B ranging from 400 nM up to greater than 100 µM[27]–[31], which are, in some cases, multiple orders-of-magnitude higher than the reported cellular potency of these antibiotics. However, these approaches are likely complicated by the rapid kill-kinetics of polymyxins, non-specific binding of polymyxins to plate surfaces, assumptions of a simple binding mechanism, an inoculum ...

Row | Structure (SMILES) | antibacterial activity [1] | MIC ([1]; LB + 0.0005% tween-80, OD600 0.0005, overnight static growth 37 °C, complete growth inhibition) [µM] | antibacterial activity and lipid A binding [2] | MIC ([3]; LB + 0.0005% tween-80, overnight 37 °C) [µM] | antibacterial activity ([3]; highest tested concentration) | t1/2 of tightly bound state ([4]; 25 and 37 °C) [h] | t1/2 ([4]; 25 °C) | t1/2 ([4]; 37 °C) | Kd ([5]; read-out: equilibrium binding constant KD, lower end) [nM] | Kd ([5]; read-out: equilibrium binding constant KD, upper end) [nM]
1 | CC(C)C[C@@H]1NC(=O)[C@@H](Cc2ccccc2)NC(=O)[C@H](CCN)NC(=O)[C@@H](NC(=O)[C@H](CCN)NC(=O)[C@@H](N)[C@@H](C)O)CCNC(=O)[C@H]([C@@H](C)O)NC(=O)[C@H](CCN)NC(=O)[C@H](CCN)NC1=O [PMBN] (H-T[Dab][Dab][Dab][dF]L[Dab][Dab]T; lactam 3-C) | lacks the antibacterial activity of polymyxin B | >40 | do not possess antibacterial activity, nonetheless bind to lipid A and permeabilize the outer membrane |  |  |  |  |  |  | 
2 | CC[C@H](C)CCCCC(=O)N[C@@H](CCN)C(=O)N[C@H](C(=O)N[C@@H](CCN)C(=O)N[C@H]1CCNC(=O)[C@H]([C@@H](C)O)NC(=O)[C@H](CCN)NC(=O)[C@H](CCN)NC(=O)[C@H](CC(C)C)NC(=O)[C@@H](Cc2ccccc2)NC(=O)[C@H](CCN)NC1=O)[C@@H](C)O [Polymyxin B] (X1-[Dab]T[Dab][Dab][Dab][dF]L[Dab][Dab]T; lactam 4-C (inferred); N-terminus assumed) |  |  |  | >40 | no activity at the highest tested concentration | > 6 | 6.86 (2.11) h | 7.27 (2.15) h | 400 | > 100000
